Assay results from patent US20030013690A1, “Increasing phosphorus uptake from the gut of dairy cows by supplementing 1alpha-hydroxylated vitamin D compounds” (priority 2001, published 2003).

Key:
Assay type in all cases: in vivo
lactating dairy cows [1] = assay: Dairy cow efficacy trial: P and Ca concentrations in urine
Source text: (§1) Eight multiparous lactating dairy cows (about 150 days in milk at start of the experiment) were blocked into two groups according to milk yield. Cows in each block were assigned randomly to four different treatments. The experimental design was a 4×4 Latin Square. Each period was four weeks in length. The first three weeks were used as an adaptation period, and measurements were taken during the last week of each period.
(§2) The four treatments were:
(§3) 1) High P diet. Dietary P at 0.47% (DM basis)
(§4) 2) Diet 1 plus 1-α-OHD3 (75 μg/cow/day)
(§5) 3) Low P diet. Dietary P at 0.35% (DM basis)
(§6) 4) Diet 3 plus 1-α-OHD3 (75 μg/cow/day).
(§7) During the last two days of each period, six urine samples were collected at 8 am, 4 pm, and 11 pm on the first day and 12 noon, 8 pm, and 6 am on the second day. Urine samples were then composited for phosphorus, calcium, and creatinine analysis. Creatinine was measured to enable an estimate of urine output. Milk samples were obtained during four days of each period. The milk sample was split; one-half was mixed with a preservative, and the other half was refrigerated without a preservative. The samples with preservative were analyzed for milk composition by Wisconsin Ag Source Milk Analysis Laboratory (Menomonie, Wis.), and the samples without preservative were composited according to milk yield and analyzed for mineral composition in the Soil and Plant Analysis Laboratory, Department of Soil Science, University of Wisconsin-Madison.

lactating dairy cows [2] = assay: Dairy cow efficacy trial: feed intake, fecal P excretion, P utilization
Source text: as §1, §2, §3, §4, §5, §6
The diets (Table 1) were fed ad libitum as a total mixed ration once daily. The cows were housed in individual tie stalls. Daily feed offered and refused was recorded for individual cows. Feed refusals were restricted to 10% of intake on an as-fed basis. Daily samples of silage and refusals were composited weekly for chemical analysis. Samples of individual feed ingredients were collected once weekly. The dry matter content of feed ingredients was determined by oven drying at 60° C. for 48 hr. Diet formulations were adjusted weekly, if necessary, to account for changes in dry matter content of diet ingredients. All of the feed ingredients were analyzed for chemical composition. Alfalfa and corn silage were analyzed weekly for neutral detergent fiber (NDF), acid detergent fiber (ADF), and crude protein (CP). High moisture ear corn (HMEC), soybean meal (SBM), roasted soybean meal (RSB), and blood meal (BM) were composited every four weeks (one sample per period) and analyzed for CP.
Feed DM digestibility was determined using Yb as an external marker. A Yb solution, prepared by dissolving 2.24 g of YbCl3 (1 g of Yb) in 30 ml of water was sprayed onto 500 g of alfalfa silage (DM basis). The Yb-marked alfalfa silage was mixed into the total mixed ration to give 40 mg of Yb/kg of dietary DM. The total mixed ration labeled with Yb was fed for nine days. During the last two days of Yb feeding (last two days of each period), eight fecal grab samples were collected from each cow at 7 am, 12 noon, 6 pm, and 11 pm on the first day and at 9 am, 3 pm, 9 pm, and 5 am on the second day. Fecal samples were dried at 60° C. for 72 h and ground through a 2-mm Wiley mill screen. Fecal samples were dry-ashed in duplicate (Combs and Satter, 1992). During the last four days of each period, feed refusals for each cow were collected and composited into one sample per cow per period. These samples were dry-ashed in the same way as feces, and analyzed for Yb. Concentrations of Yb (ppm) in feed, feed refusals, and fecal samples were determined by direct current plasma spectroscopy [(Combs and Satter, 1992); Spectra Metrics, Inc., subsidiary of Beckman Instruments, Inc., Andover, Mass.]. The DM digestibility (percentage) for individual cows was calculated as follows: DM digestibility (%)=(1-concentration of Yb in DM consumed/average concentration of Yb in each cow's fecal samples)100. Digestibility of dietary P in different treatments was calculated using P input-output data.

lactating dairy cows [3] = assay: Dairy cow efficacy trial: P and Ca concentrations in blood serum
Source text: as §1, §2, §3, §4, §5, §6
(§8) Cows were weighed two days in a row before the trial started and two days in a row when it finished. Daily milk weights were recorded. All cows were injected with bovine somatotropin (Posilac®). Blood samples were collected on the last day of weeks 1, 2, and 3 of each period. During week 4, blood samples were obtained on each of the last three days. Blood was obtained 5 hours after feeding from the coccygeal vein or artery in a gel and clot co-activator vacutainer. Samples were centrifuged the next day to separate the serum. Inorganic phosphorus and calcium analyses were performed on serum samples by Marshfield Laboratories, Marshfield, Wis.

lactating dairy cows [4] = assay: Dairy cow efficacy trial: milk yield and milk composition
Source text: as §1, §2, §3, §4, §5, §6, §8, §7

[5] = treatment 2: high P diet (0.47% P) plus 75 μg/cow/day
[6] = treatment 4: low P diet (0.35% P) plus 75 μg/cow/day
[7] = both the high- and low-P treatments, highly significant

## C=C1/C(=C\C=C2/CCC[C@]3(C)[C@@H]([C@H](C)CCCC(C)C)CC[C@@H]23)C[C@@H](O)C[C@@H]1O [1-α-OHD3, 1α-hydroxyvitamin D3]
Lactating dairy cows [1]; 75 μg/cow/day
  Effect on calcium excretion via urine: increased
Lactating dairy cows [1]; high-P treatment, at 5.15 mg P per dl of urine
  Urinary P as share of dietary P intake: about 2%
Lactating dairy cows [1]; [5]
  Urine calcium: 12.03 mg/dL
  Urine phosphorus: 5.15 mg/dL
Lactating dairy cows [1]; [6]
  Urine calcium: 15.46 mg/dL
  Urine phosphorus: 0.40 mg/dL
Lactating dairy cows [2]; 75 μg/cow/day
  Reduction in fecal P excretion due to supplementation: 14%
Lactating dairy cows [2]; both the high- and low-P treatments, 75 μg/cow/day
  Reduction of phosphorus excretion in manure: about 10 g per day
Lactating dairy cows [2]; daily inclusion of 75 μg in the cows' diets
  Effect on fecal P excretion: reduced
Lactating dairy cows [2]; evidenced by decreased fecal P and increased serum P
  Effect on P uptake from the gut: increased
Lactating dairy cows [2]; [5]
  Fecal DM P: 0.99%
  Fecal P: 71.3 g/day
  Milk and Fecal P: 109.5 g/day
Lactating dairy cows [2]; [6]
  Fecal DM P: 0.77%
  Fecal P: 55.4 g/day
  Milk and Fecal P: 93.8 g/day
Lactating dairy cows [3]; [7]
  Effect on concentration of Ca in blood serum: increase
  Effect on concentration of P in blood serum: increase
Lactating dairy cows [3]; [5]
  Blood serum calcium: 10.32 mg/dL
  Blood serum phosphorus: 8.77 mg/dL
Lactating dairy cows [3]; [6]
  Blood serum calcium: 10.14 mg/dL
  Blood serum phosphorus: 7.63 mg/dL
Lactating dairy cows [4]; supplementation of 75 μg
  Effect on milk production: unaffected
Lactating dairy cows [4]; [5]
  Milk yield: 36.9 kg/day
Lactating dairy cows [4]; [6]
  Milk yield: 37.6 kg/day
